Test results taken from the supplement of paper PMC10307832.

Legend:
Test in all cases: relative viability (nuclei count vs DMSO), 5 days (fraction); higher = more cells survive
[1] = compound: C1=CC2=C(C=C(C(=C2N=C1)O)N=NC3=CC4=C(C=C3)C=C(C=C4)S(=O)(=O)O)S(=O)(=O)O + Cc1cc(Nc2cc(N3CCN(C)CC3)nc(Sc3ccc(NC(=O)C4CC4)cc3)n2)n[nH]1 [Tozasertib] (partner 0.1 µM)
Procedure, shortened: (§1)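 Cells from lung cancer lines were seeded into 1536-well plates and, one day later, dosed by pin tool. Treatments were either a single drug or a fixed dose of an anchor drug with five library-drug doses (not always all listed) in √10 steps. After 5 days, nuclei were stained in a one-step fixation (final 0.05% Triton X-100, 1% formaldehyde, 1 ug/ml Hoechst) and counted on 4× images, and relative viability is the treated-to-vehicle nuclei ratio, as the median of duplicate plates.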

[2] = compound: O=C(NC1CCNCC1)c1n[nH]cc1NC(=O)c1c(Cl)cccc1Cl [AT-7519] + N=C(N)NC(=N)NCCc1ccccc1 [Phenformin] (partner 250 µM)
Procedure, shortened: as §1

[3] = compound: C1=CC2=C(C=C(C(=C2N=C1)O)N=NC3=CC4=C(C=C3)C=C(C=C4)S(=O)(=O)O)S(=O)(=O)O + NC(=O)Nc1cc(-c2cccc(F)c2)sc1C(=O)N[C@H]1CCCNC1 [AZD7762] (partner 0.2 µM)
Procedure, shortened: as §1

[4] = compound: C1=CC2=C(C=C(C(=C2N=C1)O)N=NC3=CC4=C(C=C3)C=C(C=C4)S(=O)(=O)O)S(=O)(=O)O + Nc1nc2[nH]cc(CCc3ccc(C(=O)N[C@@H](CCC(=O)O)C(=O)O)cc3)c2c(=O)[nH]1 [Pemetrexed] (partner 0.2 µM)
Procedure, shortened: as §1

Cell Line	relative viability ([1]; first compound 0.08 µM)	relative viability ([1]; first compound 0.253 µM)	relative viability ([1]; first compound 0.8 µM)	relative viability ([1]; first compound 2.53 µM)	relative viability ([1]; first compound 8 µM)	relative viability ([2]; first compound 0.01 µM)	relative viability ([2]; first compound 0.03162 µM)	relative viability ([2]; first compound 0.3162 µM)	relative viability ([2]; first compound 1 µM)	relative viability ([3]; first compound 0.08 µM)	relative viability ([3]; first compound 0.253 µM)	relative viability ([3]; first compound 0.8 µM)	relative viability ([3]; first compound 2.53 µM)	relative viability ([3]; first compound 8 µM)	relative viability ([4]; first compound 0.08 µM)	relative viability ([4]; first compound 0.253 µM)	relative viability ([4]; first compound 0.8 µM)	relative viability ([4]; first compound 2.53 µM)	relative viability ([4]; first compound 8 µM)
PC-14	0.607	0.574	0.55	0.646	0.594	0.519	0.566	0.424	0.314	0.353	0.294	0.305	0.375	0.328	0.127	0.129	0.145	0.132	0.11
RERF-LC-KJ	0.506	0.601	0.512	0.519	0.509	0.456	0.418	0.388	0.217	0.945	0.949	0.924	1.03	0.552	0.488	0.483	0.464	0.463	0.457
SW 900	0.566	0.559	0.536	0.599	0.469	0.697	0.645	0.604	0.196	0.597	0.644	0.598	0.588	0.666	0.479	0.49	0.468	0.531	0.481
